Reference: ChEMBL document CHEMBL3352660, “Design, synthesis and pharmacological evaluation of novel polycyclic heteroarene ethers as PDE10A inhibitors: part II” (Bioorg Med Chem Lett, 2014)
Active and inactive are the calls of the source. The calls are words filed in the database; no cut-off is given here.

Assays:
[1] = AUC (0 to t) in Swiss albino mouse at 10 mg/kg, po; type: ADME, organism-based; design: dose 10 mg/kg, route oral; conditions: plasma
[2] = Cmax in Sprague-Dawley rat at 10 mg/kg, po; type: ADME, organism-based; design: dose 10 mg/kg, route oral; conditions: in vivo
[3] = target: cGMP-specific 3',5'-cyclic phosphodiesterase (Homo sapiens) (UniProt O76074); assay: Inhibition of human recombinant PDE5A using […] as substrate at 10 uM after 30 mins by scintillation proximity assay
[4] = test system: Rattus norvegicus; assay: Antipsychotic activity in Sprague-Dawley rat psychosis model assessed as reversal of MK-801-induced stereotypy at 3 mg/kg, po administered 2 hrs prior to MK-801 challenge measured every 5 mins for 1 hr starting 15 mins post MK-801 injection relative to vehicle-treated control; type: functional
[5] = test system: Rattus norvegicus; assay: Antipsychotic activity in Sprague-Dawley rat prepulse inhibition deficit model assessed as reversal of MK-801-induced effect at 3 mg/kg, po administered 110 mins prior to MK-801 challenge relative to vehicle-treated control; type: functional; design: scale not given: the % may be the effect or the level left
[6] = test system: Rattus norvegicus; assay: Antipsychotic activity in po dosed Sprague-Dawley rat prepulse inhibition deficit model assessed as reversal of MK-801-induced effect administered 110 mins prior to MK-801 challenge relative to vehicle-treated control; type: functional
[7] = test system: Rattus norvegicus; assay: Antipsychotic activity in Sprague-Dawley rat psychosis model assessed as reversal of MK-801-induced locomotion at 1 mg/kg, po administered 2 hrs prior to MK-801 challenge measured every 5 mins for 1 hr starting 15 mins post MK-801 injection relative to vehicle-treated control; type: functional
[8] = Metabolic stability in CD1 mouse liver microsomes incubated for 10 mins prior to NADPH addition measured after 60 mins by LC/MS/MS analysis; type: ADME; conditions: read-out: Stability
[9] = Apparent permeability of the compound by PAMPA; type: physicochemical
[10] = test system: Mus musculus; assay: Ratio of ED50 for po dosed Swiss albino mouse assessed as inhibition of apomorphine-induced sniffing behavior administered 30 mins prior to apomorphine challenge to ED50 for po dosed Swiss albino mouse assessed as inhibition of apomorphine-induced climbing behavior administered 30 mins prior to apomorphine challenge; type: functional
[11] = target: cGMP-specific 3',5'-cyclic phosphodiesterase (Homo sapiens) (UniProt O76074); assay: Inhibition of human recombinant PDE5A using […] as substrate at 1 uM after 30 mins by scintillation proximity assay
[12] = target: cGMP-inhibited 3',5'-cyclic phosphodiesterase 3A (Homo sapiens) (UniProt Q14432); assay: Inhibition of human recombinant PDE3A using cAMP as substrate at 1 uM after 30 mins by HTRF method
Chain of cGMP-inhibited 3',5'-cyclic phosphodiesterase 3A (Homo sapiens) (Q14432 whole entry): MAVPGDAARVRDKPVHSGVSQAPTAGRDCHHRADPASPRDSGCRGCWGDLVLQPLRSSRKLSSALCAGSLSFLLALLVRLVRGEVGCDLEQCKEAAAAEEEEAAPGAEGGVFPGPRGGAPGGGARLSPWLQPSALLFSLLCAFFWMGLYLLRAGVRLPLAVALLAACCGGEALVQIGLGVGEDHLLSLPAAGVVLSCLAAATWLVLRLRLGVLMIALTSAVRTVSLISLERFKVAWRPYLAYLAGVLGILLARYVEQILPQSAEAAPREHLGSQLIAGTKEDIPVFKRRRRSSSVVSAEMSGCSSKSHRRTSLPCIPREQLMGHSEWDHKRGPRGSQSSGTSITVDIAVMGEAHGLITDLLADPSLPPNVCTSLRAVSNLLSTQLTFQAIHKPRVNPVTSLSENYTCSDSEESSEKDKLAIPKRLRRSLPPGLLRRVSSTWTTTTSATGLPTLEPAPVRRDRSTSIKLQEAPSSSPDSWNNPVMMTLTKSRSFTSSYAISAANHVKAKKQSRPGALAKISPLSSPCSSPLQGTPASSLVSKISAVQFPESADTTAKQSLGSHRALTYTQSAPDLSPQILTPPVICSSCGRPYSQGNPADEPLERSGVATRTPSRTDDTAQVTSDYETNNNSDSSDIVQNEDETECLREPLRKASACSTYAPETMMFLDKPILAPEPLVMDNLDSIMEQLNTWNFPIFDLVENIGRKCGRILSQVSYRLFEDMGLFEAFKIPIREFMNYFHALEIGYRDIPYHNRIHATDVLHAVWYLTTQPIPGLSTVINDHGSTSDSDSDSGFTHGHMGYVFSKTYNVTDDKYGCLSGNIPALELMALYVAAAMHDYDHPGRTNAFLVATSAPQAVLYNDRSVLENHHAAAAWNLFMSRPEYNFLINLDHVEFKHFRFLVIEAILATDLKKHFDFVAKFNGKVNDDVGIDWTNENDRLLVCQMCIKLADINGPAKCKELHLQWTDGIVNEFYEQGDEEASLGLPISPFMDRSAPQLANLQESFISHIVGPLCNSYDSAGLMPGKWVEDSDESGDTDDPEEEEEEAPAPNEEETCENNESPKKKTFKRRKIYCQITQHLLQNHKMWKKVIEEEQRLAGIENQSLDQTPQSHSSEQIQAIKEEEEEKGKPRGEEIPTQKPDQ

[13] = target: Dual 3',5'-cyclic-AMP and -GMP phosphodiesterase 11A (Homo sapiens) (UniProt Q9HCR9); assay: Inhibition of human recombinant PDE11A using [3H]-cAMP as substrate at 10 uM after 30 mins by two-step radiometric assay
Chain of Dual 3',5'-cyclic-AMP and -GMP phosphodiesterase 11A (Homo sapiens) (Q9HCR9 whole entry, looked up): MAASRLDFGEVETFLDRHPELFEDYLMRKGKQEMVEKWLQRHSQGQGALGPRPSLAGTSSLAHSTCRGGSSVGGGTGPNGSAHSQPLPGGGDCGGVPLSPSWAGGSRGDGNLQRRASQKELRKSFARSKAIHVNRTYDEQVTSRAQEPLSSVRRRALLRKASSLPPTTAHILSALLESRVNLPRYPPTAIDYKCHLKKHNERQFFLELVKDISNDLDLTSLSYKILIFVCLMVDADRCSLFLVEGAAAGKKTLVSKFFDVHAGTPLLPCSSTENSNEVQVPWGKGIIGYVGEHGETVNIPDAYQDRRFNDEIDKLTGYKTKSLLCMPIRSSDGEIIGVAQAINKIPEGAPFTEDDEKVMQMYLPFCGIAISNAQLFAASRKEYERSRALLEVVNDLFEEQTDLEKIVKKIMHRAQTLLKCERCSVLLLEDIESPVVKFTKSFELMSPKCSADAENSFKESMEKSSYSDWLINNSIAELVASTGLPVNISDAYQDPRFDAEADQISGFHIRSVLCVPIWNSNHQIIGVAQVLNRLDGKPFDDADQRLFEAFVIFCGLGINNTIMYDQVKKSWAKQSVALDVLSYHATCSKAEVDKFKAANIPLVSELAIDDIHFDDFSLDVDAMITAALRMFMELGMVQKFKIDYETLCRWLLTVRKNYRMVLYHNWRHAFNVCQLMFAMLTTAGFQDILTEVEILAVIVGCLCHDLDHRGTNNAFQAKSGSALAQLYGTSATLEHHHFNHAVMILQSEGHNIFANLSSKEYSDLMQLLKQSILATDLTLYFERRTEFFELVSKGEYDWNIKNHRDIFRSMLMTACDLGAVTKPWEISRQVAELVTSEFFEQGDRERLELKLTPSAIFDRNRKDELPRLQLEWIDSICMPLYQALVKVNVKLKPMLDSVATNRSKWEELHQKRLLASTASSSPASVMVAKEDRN

[14] = Tmax in Swiss albino mouse at 10 mg/kg, po; type: ADME, organism-based; design: dose 10 mg/kg, route oral; conditions: in vivo
[15] = test system: Rattus norvegicus; assay: Antipsychotic activity in Sprague-Dawley rat conditioned avoidance response model assessed as avoidance of shock at 10 mg/kg, po measured after 2 hrs relative to vehicle-treated control; type: functional
[16] = test system: Brain; assay: Free drug level in Sprague-Dawley rat brain at 10 mg/kg, po after 1 hr by LC/MS/MS analysis; type: ADME, organism-based; design: dose 10 mg/kg, route oral; conditions: in vivo
[17] = test system: Rattus norvegicus; assay: Antipsychotic activity in po dosed Sprague-Dawley rat conditioned avoidance response model assessed as avoidance of shock measured after 2 hrs relative to vehicle-treated control; type: functional
[18] = Metabolic stability in Wistar rat liver microsomes incubated for 10 mins prior to NADPH addition measured after 60 mins by LC/MS/MS analysis; type: ADME; conditions: read-out: Stability
[19] = target: cGMP-dependent 3',5'-cyclic phosphodiesterase (Homo sapiens) (UniProt O00408); assay: Inhibition of human recombinant PDE2A using cAMP as substrate at 1 uM after 30 mins by HTRF method
Chain of cGMP-dependent 3',5'-cyclic phosphodiesterase (Homo sapiens) (O00408 whole entry): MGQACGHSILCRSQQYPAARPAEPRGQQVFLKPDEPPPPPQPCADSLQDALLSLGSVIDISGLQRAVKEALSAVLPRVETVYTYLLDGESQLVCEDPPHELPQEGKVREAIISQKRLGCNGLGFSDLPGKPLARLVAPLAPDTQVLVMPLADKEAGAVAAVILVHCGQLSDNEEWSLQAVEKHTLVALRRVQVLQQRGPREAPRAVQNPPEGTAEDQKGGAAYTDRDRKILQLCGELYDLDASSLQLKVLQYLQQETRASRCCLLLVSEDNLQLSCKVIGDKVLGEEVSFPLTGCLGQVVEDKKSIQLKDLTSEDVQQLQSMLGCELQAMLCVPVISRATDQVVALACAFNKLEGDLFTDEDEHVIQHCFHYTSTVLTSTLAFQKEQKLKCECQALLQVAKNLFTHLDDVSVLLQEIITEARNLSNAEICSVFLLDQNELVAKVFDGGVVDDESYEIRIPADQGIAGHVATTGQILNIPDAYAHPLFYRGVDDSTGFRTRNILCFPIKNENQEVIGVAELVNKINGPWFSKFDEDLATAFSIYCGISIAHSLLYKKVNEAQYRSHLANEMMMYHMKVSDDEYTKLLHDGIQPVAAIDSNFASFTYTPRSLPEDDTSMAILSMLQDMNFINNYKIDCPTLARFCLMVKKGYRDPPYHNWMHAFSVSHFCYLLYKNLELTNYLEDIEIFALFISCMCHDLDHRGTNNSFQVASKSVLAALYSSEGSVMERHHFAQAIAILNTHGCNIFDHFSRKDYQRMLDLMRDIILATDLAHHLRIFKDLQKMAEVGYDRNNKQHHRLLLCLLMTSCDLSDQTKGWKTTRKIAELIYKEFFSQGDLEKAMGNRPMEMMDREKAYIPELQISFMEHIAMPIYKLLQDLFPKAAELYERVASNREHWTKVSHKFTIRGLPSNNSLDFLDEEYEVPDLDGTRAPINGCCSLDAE

[20] = test system: Rattus norvegicus; assay: Antipsychotic activity in Sprague-Dawley rat conditioned avoidance response model assessed as avoidance of shock at 2.5 mg/kg, po measured after 2 hrs relative to vehicle-treated control; type: functional
[21] = test system: Rattus norvegicus; assay: Antipsychotic activity in Sprague-Dawley rat psychosis model assessed as reversal of MK-801-induced ataxia at 10 mg/kg, po administered 2 hrs prior to MK-801 challenge measured every 5 mins for 1 hr starting 15 mins post MK-801 injection relative to vehicle-treated control; type: functional
[22] = test system: Rattus norvegicus; assay: Antipsychotic activity in Sprague-Dawley rat prepulse inhibition deficit model assessed as reversal of MK-801-induced effect at 10 mg/kg, po administered 110 mins prior to MK-801 challenge relative to vehicle-treated control; type: functional; design: scale not given: the % may be the effect or the level left
[23] = Metabolic stability in cynomolgus monkey liver microsomes incubated for 10 mins prior to NADPH addition measured after 60 mins by LC/MS/MS analysis; type: ADME, Macaca fascicularis; conditions: read-out: Stability
[24] = target: cAMP and cAMP-inhibited cGMP 3',5'-cyclic phosphodiesterase 10A (Homo sapiens, UniProt Q9Y233); assay: Inhibition of human recombinant GST-tagged PDE10A using [3H]-cAMP as substrate at 1 uM after 30 mins by scintillation proximity assay
Chain of cAMP and cAMP-inhibited cGMP 3',5'-cyclic phosphodiesterase 10A (Q9Y233 whole entry): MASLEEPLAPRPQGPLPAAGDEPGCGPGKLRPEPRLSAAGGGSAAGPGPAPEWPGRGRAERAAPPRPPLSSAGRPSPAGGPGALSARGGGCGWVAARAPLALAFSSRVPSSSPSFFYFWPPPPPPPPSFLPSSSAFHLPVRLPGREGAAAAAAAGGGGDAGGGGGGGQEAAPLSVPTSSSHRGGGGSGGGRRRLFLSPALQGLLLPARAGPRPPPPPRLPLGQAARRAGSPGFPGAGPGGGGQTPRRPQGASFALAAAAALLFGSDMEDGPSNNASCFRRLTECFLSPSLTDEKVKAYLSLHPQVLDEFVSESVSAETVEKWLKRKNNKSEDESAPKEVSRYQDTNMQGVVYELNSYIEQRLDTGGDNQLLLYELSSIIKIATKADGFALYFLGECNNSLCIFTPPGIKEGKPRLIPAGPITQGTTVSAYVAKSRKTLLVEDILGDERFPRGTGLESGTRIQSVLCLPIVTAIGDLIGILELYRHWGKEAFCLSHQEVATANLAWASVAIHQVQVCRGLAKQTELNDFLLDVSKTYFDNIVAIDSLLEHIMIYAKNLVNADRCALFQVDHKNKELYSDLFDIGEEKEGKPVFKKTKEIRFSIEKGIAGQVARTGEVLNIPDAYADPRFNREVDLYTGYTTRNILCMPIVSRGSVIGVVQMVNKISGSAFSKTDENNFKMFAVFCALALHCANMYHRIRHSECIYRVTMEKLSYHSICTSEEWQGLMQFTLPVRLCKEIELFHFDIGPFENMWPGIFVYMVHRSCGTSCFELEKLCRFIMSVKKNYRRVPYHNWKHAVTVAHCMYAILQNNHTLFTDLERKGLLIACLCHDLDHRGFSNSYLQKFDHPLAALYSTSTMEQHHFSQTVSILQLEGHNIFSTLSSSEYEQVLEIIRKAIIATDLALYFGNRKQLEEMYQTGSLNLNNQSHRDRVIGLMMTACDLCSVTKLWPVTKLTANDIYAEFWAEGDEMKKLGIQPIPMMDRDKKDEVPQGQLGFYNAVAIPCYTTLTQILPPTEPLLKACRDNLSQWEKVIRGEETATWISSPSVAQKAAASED

[25] = target: High affinity 3',5'-cyclic-AMP phosphodiesterase 7A (Homo sapiens) (UniProt Q13946); assay: Inhibition of human recombinant PDE7A using [3H]-cAMP as substrate at 1 uM after 30 mins by two-step radiometric assay
Chain of High affinity 3',5'-cyclic-AMP phosphodiesterase 7A (Homo sapiens) (Q13946 whole entry): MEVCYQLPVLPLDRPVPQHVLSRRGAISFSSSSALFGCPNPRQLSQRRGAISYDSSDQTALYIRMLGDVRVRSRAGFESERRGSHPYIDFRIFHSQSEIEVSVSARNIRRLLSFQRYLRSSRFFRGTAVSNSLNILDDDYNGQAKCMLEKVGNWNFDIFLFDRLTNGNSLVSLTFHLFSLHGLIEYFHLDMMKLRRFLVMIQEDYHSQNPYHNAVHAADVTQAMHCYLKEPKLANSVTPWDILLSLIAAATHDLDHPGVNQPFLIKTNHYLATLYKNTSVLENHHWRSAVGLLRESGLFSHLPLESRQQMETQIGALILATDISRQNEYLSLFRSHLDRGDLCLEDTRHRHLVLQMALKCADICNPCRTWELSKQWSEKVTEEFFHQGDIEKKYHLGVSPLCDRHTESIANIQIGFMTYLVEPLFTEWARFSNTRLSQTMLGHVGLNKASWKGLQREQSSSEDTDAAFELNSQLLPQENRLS

[26] = test system: Rattus norvegicus; assay: Antipsychotic activity in Sprague-Dawley rat conditioned avoidance response model assessed as escape at 10 mg/kg, po measured after 2 hrs relative to vehicle-treated control; type: functional, organism-based; design: dose 10 mg/kg

For `Cn1cc(-c2ccc(Oc3nccnc3-c3ccncc3)cc2)c2ncccc21`, the AUC(0-t) [1] was 31600 ng·h/mL, the Cmax [2] was 27600 ng/mL and the inhibition [3] was 21.6%. For the same compound, the Activity [4] was 96%, the Activity [5] was 64% and the Activity [6] was “Dose-dependent effect”. It also gave an ED50 [6] of 1.47 mg/kg, an Activity [7] of 27% and a remaining at 1 h [8] of 46.2%. The Papp [9] was 2.97 ×10⁻⁶ cm/s, the “Ratio ED50” value [10] was 10.63 and the inhibition [11] was 0.8%. For the same compound, the inhibition [12] was 0%, the inhibition [13] was 11.2% and the Tmax [14] was 30 min. For the same compound, the Activity [15] was 90%, the “Drug uptake(free)” value [16] was 5 nM and the Activity [17] was “Dose-dependent effect”. It also gave an ED50 [17] of 2.08 mg/kg, a remaining at 1 h [18] of 51% and an inhibition [19] of 3.3%. It also gave an Activity [20] of 64%, an Activity [21] of 86% and an Activity [22] of 88%. For the same compound, the remaining at 1 h [23] was 70.5%, the inhibition [24] was 98% and the inhibition [25] was 2.5%. The Activity [26] was “Active”.
